# Results published in patent US11826396B2, “Nutriprotective diet” (FÉDÉRATION DES PRODUCTEURS ACÉRICOLES DU QUÉBEC, priority 2011, dated 2023).
# pIC50: −log10 of the molar value.
# Assay: diphenylpicrylhydrazyl (DPPH) radical scavenging assay
# Format: biochemical
# Conditions: read-out: antioxidant activity, IC50
row,pIC50,Compound
1,4.24,"O=C1O[C@H]([C@@H](O)CO)C(O)=C1O [vitamin C, Ascorbic acid]"
2,2.58,Cc1cc(C(C)(C)C)c(O)c(C(C)(C)C)c1 [butylatedhydroxytoluene]
